Laboratory results published in patent publication US20260297085A1, “1 H-PYRROLO[2,3-B]PYRIDIN-4-YL]-2-OXOPYRROLIDINE-3-CARBONITRILE DERIVATIVES AS TYROSINE KINASE 2 (TYK2) INHIBITORS FOR THE TREATMENT OF INFLAMMATORY DISEASES” (BIOGEN MA INC., priority 2023, published 2026).
Structures can show the parent of a compound that is named as a salt.

Experiments:
[1] = molecular target: Tyk2 kinase activity on STAT4 in NK92 cells (Homo sapiens, UniProt P29597); assay: pSTAT4 cell assay (MSD; NK92 cells, 30 ng/mL IL2 stimulation); format: cell-based; settings: 30 ng/mL IL2, 15 minutes
Outline: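 Serum-starved NK92 cells, which natively express Tyk2 and STAT4, were pretreated for 1 h with a 10-point 4-fold dilution series from 10 μM. They were then stimulated with 30 ng/mL IL2 for 15 min. Phospho-STAT in lysates was quantified by MSD with anti-STAT4 antibodies, and IC50 was obtained from 4-parameter logistic fits.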

[2] = molecular target: T1, human JAK1 kinase domain (JH1) (Homo sapiens, UniProt P23458); assay: JH1 biochemical assay for JAK1 (ADP-Glo kinase assay, recombinant JH1 catalytic domain, JAK3-342 peptide, 35 μM ATP)
T1 construct: recombinantly generated catalytic kinase (also known as JH1) domain of human JAK1, JAK2, JAK3 and TYK2
Outline: (§1)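 Enzyme levels: JAK1 4 nM, JAK2 0.2 nM, JAK3 0.3 nM, TYK2 2 nM. Peptide substrate at 50 μM. Reactions ran 100 minutes; ADP formed was converted to luciferase luminescence after ATP depletion. Compounds tested from 10 μM or 1 μM top, 11-point 3-fold dilutions; IC50 from 4-parameter logistic fit of normalized percent activity.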

[3] = molecular target: JAK2 kinase activity on STAT5 in TF1 cells (Homo sapiens, UniProt O60674); assay: pSTAT5 cell assay (MSD; TF1 cells, 30 ng/mL IL-3 stimulation); format: cell-based; settings: 30 ng/mL IL-3, 15 minutes
Outline: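 Serum-starved TF1 cells with native JAK2/STAT5 were pretreated 1 h with compound (10-point four-fold dilutions from 10 μM), then stimulated 15 min with 30 ng/mL IL-3. pSTAT5 in lysates quantified by MSD immunoassay; normalized percent activity fitted to a 4-parameter logistic curve for IC50.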

[4] = molecular target: T2, human JAK2 kinase domain (JH1) (Homo sapiens, UniProt O60674); assay: JH1 biochemical assay for JAK2 (ADP-Glo kinase assay, recombinant JH1 catalytic domain, JAK3-974 peptide, 15 μM ATP)
T2 construct: recombinantly generated catalytic kinase (also known as JH1) domain of human JAK1, JAK2, JAK3 and TYK2
Outline: as §1

[5] = molecular target: T3, human TYK2 kinase domain (JH1) (Homo sapiens, UniProt P29597); assay: JH1 biochemical assay for TYK2 (ADP-Glo kinase assay, recombinant JH1 catalytic domain, JAK3-974 peptide, 10 μM ATP)
T3 construct: recombinantly generated catalytic kinase (also known as JH1) domain of human JAK1, JAK2, JAK3 and TYK2
T3 sequence (P29597 897-1176 limits assumed): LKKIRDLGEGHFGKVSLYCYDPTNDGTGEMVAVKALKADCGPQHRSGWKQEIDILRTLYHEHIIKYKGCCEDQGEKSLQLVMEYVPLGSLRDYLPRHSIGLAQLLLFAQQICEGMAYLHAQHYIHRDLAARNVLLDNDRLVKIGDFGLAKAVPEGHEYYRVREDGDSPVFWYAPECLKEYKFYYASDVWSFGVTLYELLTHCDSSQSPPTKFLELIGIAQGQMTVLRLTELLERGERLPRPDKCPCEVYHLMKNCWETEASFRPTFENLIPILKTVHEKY
Outline: as §1

[6] = molecular target: JAK1 kinase activity on STAT3 in TF1 cells (Homo sapiens, UniProt P23458); assay: pSTAT3 cell assay (MSD; TF1 cells, 30 ng/mL IL-6 stimulation); format: cell-based; settings: 30 ng/mL IL-6, 15 minutes
Outline: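 Readout is pSTAT3 in lysates, quantified on an MSD plate assay using anti-STAT3 antibodies. Before lysis, TF1 cells had been serum-starved, exposed to compound for 1 hour across ten four-fold dilutions starting at 10 μM, and given IL-6 for 15 minutes.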

[7] = molecular target: T4, human JAK3 kinase domain (JH1) (Homo sapiens, UniProt P52333); assay: JH1 biochemical assay for JAK3 (ADP-Glo kinase assay, recombinant JH1 catalytic domain, JAK3-974 peptide, 4 μM ATP)
T4 construct: recombinantly generated catalytic kinase (also known as JH1) domain of human JAK1, JAK2, JAK3 and TYK2
Outline: as §1

Chain of JAK2 kinase activity on STAT5 in TF1 cells (O60674 whole entry): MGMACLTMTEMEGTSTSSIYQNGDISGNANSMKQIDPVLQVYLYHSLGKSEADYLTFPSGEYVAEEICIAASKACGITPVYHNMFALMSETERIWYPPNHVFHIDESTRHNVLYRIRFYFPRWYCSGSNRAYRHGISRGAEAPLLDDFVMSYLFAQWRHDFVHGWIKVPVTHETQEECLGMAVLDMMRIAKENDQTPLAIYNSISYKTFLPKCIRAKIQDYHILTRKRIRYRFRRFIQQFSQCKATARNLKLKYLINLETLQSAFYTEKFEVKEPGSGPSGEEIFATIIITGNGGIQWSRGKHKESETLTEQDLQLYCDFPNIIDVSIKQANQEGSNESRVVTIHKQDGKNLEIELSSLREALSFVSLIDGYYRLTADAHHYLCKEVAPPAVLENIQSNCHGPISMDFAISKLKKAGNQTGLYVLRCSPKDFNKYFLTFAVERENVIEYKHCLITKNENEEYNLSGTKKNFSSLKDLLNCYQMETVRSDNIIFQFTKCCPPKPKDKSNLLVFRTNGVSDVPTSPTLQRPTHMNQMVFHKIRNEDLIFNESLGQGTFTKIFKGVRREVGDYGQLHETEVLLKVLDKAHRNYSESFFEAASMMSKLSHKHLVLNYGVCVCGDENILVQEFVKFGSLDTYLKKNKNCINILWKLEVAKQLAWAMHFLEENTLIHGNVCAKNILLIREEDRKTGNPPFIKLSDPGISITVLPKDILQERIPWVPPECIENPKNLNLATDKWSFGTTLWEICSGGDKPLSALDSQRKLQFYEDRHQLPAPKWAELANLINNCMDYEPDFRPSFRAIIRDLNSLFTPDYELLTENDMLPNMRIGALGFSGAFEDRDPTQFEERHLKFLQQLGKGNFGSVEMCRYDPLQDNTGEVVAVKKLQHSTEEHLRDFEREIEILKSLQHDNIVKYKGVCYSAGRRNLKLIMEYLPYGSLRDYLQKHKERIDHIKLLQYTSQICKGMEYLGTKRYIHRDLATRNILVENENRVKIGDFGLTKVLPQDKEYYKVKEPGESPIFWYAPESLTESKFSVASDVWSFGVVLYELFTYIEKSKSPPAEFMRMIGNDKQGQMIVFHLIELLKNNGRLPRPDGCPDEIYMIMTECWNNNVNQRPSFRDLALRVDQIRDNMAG
T2 sequence (O60674 849-1124 limits assumed): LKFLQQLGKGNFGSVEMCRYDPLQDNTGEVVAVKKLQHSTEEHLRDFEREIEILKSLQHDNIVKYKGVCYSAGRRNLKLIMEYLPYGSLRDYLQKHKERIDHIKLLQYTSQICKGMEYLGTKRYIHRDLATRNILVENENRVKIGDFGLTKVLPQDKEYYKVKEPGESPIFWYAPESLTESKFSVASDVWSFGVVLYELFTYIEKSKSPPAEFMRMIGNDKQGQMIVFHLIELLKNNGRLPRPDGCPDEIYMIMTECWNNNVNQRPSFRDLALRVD
T1 sequence (P23458 875-1153 limits assumed): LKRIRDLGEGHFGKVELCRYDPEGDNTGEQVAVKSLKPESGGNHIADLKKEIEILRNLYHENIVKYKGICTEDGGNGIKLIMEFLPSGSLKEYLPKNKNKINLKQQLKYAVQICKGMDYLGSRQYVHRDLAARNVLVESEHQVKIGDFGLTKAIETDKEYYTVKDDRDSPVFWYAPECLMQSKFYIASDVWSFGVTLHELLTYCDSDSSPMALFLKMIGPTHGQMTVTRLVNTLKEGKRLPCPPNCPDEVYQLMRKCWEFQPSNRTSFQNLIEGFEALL
Chain of JAK1 kinase activity on STAT3 in TF1 cells (P23458 whole entry): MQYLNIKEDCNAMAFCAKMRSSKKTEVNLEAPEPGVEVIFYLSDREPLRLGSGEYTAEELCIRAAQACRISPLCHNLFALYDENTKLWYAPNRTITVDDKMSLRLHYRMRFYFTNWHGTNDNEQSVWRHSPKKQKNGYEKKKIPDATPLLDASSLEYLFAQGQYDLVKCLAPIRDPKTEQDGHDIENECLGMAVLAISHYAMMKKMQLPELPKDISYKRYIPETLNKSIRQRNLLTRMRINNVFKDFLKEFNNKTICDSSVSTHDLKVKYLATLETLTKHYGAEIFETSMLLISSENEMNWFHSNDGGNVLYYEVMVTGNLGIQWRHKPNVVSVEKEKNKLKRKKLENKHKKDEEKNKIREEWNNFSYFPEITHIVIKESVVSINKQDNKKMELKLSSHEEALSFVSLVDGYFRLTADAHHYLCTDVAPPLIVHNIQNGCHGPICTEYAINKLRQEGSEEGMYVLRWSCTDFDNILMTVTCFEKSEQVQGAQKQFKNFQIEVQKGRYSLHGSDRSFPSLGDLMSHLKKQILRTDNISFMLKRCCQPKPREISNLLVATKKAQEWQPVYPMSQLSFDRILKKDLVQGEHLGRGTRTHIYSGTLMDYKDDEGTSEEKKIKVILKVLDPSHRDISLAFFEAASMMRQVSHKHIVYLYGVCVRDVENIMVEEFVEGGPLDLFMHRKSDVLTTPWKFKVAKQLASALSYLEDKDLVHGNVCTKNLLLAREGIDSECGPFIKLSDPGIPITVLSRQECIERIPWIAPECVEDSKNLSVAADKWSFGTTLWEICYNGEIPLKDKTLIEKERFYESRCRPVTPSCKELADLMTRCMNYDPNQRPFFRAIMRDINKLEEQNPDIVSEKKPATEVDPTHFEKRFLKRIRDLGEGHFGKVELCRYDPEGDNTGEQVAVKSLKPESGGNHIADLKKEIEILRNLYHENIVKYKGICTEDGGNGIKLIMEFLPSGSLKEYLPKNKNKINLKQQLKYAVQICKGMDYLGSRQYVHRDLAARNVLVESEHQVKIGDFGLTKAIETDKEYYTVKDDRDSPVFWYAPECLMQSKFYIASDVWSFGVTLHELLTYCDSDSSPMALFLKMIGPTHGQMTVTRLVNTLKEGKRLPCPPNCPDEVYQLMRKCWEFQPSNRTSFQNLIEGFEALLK
T4 sequence (P52333 822-1111 limits assumed): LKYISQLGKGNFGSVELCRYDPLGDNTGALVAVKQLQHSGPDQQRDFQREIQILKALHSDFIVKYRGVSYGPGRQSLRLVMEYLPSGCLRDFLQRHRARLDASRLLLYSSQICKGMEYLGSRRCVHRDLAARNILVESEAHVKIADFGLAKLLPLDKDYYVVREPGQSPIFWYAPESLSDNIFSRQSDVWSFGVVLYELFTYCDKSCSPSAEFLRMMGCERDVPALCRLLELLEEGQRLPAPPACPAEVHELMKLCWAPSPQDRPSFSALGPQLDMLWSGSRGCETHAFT
Chain of Tyk2 kinase activity on STAT4 in NK92 cells (P29597 whole entry): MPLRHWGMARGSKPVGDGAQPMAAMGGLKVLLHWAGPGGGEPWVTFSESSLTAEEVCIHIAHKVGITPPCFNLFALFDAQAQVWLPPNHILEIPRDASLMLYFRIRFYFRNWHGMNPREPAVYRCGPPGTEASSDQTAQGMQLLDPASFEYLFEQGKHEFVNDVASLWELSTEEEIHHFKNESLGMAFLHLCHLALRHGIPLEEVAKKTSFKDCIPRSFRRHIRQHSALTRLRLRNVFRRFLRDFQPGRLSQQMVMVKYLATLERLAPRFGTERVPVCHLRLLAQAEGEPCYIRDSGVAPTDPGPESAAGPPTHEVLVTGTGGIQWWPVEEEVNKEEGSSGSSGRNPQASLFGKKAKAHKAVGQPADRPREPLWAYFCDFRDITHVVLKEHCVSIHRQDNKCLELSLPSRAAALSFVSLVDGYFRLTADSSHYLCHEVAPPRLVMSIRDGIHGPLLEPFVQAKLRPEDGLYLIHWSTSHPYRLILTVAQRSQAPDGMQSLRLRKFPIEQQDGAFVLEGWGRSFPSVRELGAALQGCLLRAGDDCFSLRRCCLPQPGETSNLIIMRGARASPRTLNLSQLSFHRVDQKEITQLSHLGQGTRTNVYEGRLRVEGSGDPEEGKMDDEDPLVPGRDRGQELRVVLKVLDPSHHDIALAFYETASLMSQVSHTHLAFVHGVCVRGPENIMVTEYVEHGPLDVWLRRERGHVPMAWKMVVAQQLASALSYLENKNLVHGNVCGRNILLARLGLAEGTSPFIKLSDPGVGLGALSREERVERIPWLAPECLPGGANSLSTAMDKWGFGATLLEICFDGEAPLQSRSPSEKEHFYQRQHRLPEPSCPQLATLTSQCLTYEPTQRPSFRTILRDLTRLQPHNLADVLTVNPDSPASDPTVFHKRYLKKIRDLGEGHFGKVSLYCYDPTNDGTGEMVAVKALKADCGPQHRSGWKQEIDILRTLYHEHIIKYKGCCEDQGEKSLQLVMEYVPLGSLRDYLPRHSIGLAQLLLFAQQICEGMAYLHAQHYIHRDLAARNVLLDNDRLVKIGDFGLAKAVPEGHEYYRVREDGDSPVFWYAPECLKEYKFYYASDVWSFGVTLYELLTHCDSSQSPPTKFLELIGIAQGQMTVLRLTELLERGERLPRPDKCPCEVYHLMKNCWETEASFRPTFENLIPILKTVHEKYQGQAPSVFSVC

Structure (SMILES)	IC50 [1]	IC50 ([2]; JAK1 JH1, ADP-Glo)	IC50 [3]	IC50 ([4]; JAK2 JH1, ADP-Glo)	IC50 ([5]; TYK2 JH1, ADP-Glo)	IC50 [6]	IC50 ([7]; JAK3 JH1, ADP-Glo)	IC50 ([2]; JH1 kinase domain, ADP-Glo)	IC50 ([4]; JH1 kinase domain, ADP-Glo)	IC50 ([5]; JH1 kinase domain, ADP-Glo)	IC50 ([7]; JH1 kinase domain, ADP-Glo)
C[C@@H]1CN(c2c[nH]c3ncc(-c4cnn(C)c4)cc23)C(=O)[C@]1(C#N)C1CC1 [Example 288, (3R,4S)-3-cyclopropyl-4-methyl-1-(5-(1-methyl-1H-pyrazol-4-yl)-1H-pyrrolo[2,3-b]pyridin-3-yl)-2-oxopyrrolidine-3-carbonitrile]	50 to 100 nM	100 to 1000 nM	1000 to 5000 nM	< 100 nM	5 to 20 nM	1000 to 5000 nM	100 to 1000 nM	–	–	–	–
C[C@@H]1CN(c2nc(-c3cnn(C4CC(C#N)C4)c3)cc3ncsc23)C(=O)[C@]1(C#N)C1CC1 (stereo partly drawn) [Example 356, (3R,4S)-1-(6-(1-(3-cyanocyclobutyl)-1H-pyrazol-4-yl)thiazolo[5,4-c]pyridin-4-yl)-3-cyclopropyl-4-methyl-2-oxopyrrolidine-3-carbonitrile]	20 to 50 nM	< 100 nM	< 100 nM	< 100 nM	< 5 nM	100 to 1000 nM	< 100 nM	–	–	–	–
CO[C@H]1C[C@H](n2cc(-c3cc4ncsc4c(N4C[C@@H](C)[C@@](C#N)(C5CC5)C4=O)n3)cn2)C1 [Example 355, (3R,4S)-3-cyclopropyl-1-(6-(1-((1r,3R)-3-methoxycyclobutyl)-1H-pyrazol-4-yl)thiazolo[5,4-c]pyridin-4-yl)-4-methyl-2-oxopyrrolidine-3-carbonitrile]	20 to 50 nM	< 100 nM	< 100 nM	< 100 nM	< 5 nM	< 100 nM	< 100 nM	–	–	–	–
C[C@@H]1CN(c2nc(-c3cnn([C@H]4C[C@](C)(C#N)C4)c3)cn3ncc(F)c23)C(=O)[C@]1(C#N)C1CC1 [Example 308, (3R,4S)-1-(6-(1-((1r,3R)-3-cyano-3-methylcyclobutyl)-1H-pyrazol-4-yl)-3-fluoropyrazolo[1,5-a]pyrazin-4-yl)-3-cyclopropyl-4-methyl-2-oxopyrrolidine-3-carbonitrile]	50 to 100 nM	< 100 nM	100 to 1000 nM	< 100 nM	< 5 nM	100 to 1000 nM	< 100 nM	–	–	–	–
C[C@@H]1CN(c2ccnn3cc(-c4cnn5c4CCC5)cc23)C(=O)[C@]1(C#N)C1CC1 [Example 171, (3R,4S)-3-cyclopropyl-1-(6-(5,6-dihydro-4H-pyrrolo[1,2-b]pyrazol-3-yl)pyrrolo[1,2-b]pyridazin-4-yl)-4-methyl-2-oxopyrrolidine-3-carbonitrile]	> 100 nM	–	> 10000 nM	–	–	5000 to 10000 nM	–	100 to 1000 nM	100 to 1000 nM	5 to 20 nM	100 to 1000 nM
C[C@@H]1CN(c2nc(-c3cnn(C(F)F)c3)cn3nccc23)C(=O)[C@]1(C#N)C1CC1 [Example 185, (3R,4S)-3-cyclopropyl-1-(6-(1-(difluoromethyl)-1H-pyrazol-4-yl)pyrazolo[1,5-a]pyrazin-4-yl)-4-methyl-2-oxopyrrolidine-3-carbonitrile]	20 to 50 nM	–	100 to 1000 nM	–	–	100 to 1000 nM	–	< 100 nM	< 100 nM	< 5 nM	< 100 nM
C[C@@H]1CN(c2ccnn3cc(-c4cc[nH]n4)cc23)C(=O)[C@]1(C#N)C1CC1 [Example 66, (3R,4S)-1-(6-(1H-pyrazol-3-yl)pyrrolo[1,2-b]pyridazin-4-yl)-3-cyclopropyl-4-methyl-2-oxopyrrolidine-3-carbonitrile trifluoroacetate]	> 100 nM	–	> 10000 nM	–	–	5000 to 10000 nM	–	100 to 1000 nM	100 to 1000 nM	5 to 20 nM	100 to 1000 nM
Cc1cnn(-c2cc3c(N4C[C@@H](C)[C@@](C#N)(C5CC5)C4=O)ccnn3c2)c1 [Example 333, (3R,4S)-3-cyclopropyl-4-methyl-1-(6-(4-methyl-1H-pyrazol-1-yl)pyrrolo[1,2-b]pyridazin-4-yl)-2-oxopyrrolidine-3-carbonitrile]	> 100 nM	100 to 1000 nM	> 10000 nM	100 to 1000 nM	5 to 20 nM	> 10000 nM	100 to 1000 nM	–	–	–	–
C[C@@H]1CN(c2ccnn3cc(-c4ccc5cncn5c4)cc23)C(=O)[C@]1(C#N)C1CC1 [Example 51, (3R,4S)-3-cyclopropyl-1-(6-(imidazo[1,5-a]pyridin-6-yl)pyrrolo[1,2-b]pyridazin-4-yl)-4-methyl-2-oxopyrrolidine-3-carbonitrile]	50 to 100 nM	–	> 10000 nM	–	–	1000 to 5000 nM	–	< 100 nM	100 to 1000 nM	5 to 20 nM	100 to 1000 nM
C[C@@H]1CN(c2ccnn3c(F)c(-c4cnn(C)c4)cc23)C(=O)[C@]1(C#N)C1CC1 [Example 28, (3R,4S)-3-cyclopropyl-1-(7-fluoro-6-(1-methyl-1H-pyrazol-4-yl)pyrrolo[1,2-b]pyridazin-4-yl)-4-methyl-2-oxopyrrolidine-3-carbonitrile]	> 100 nM	–	> 10000 nM	–	–	> 10000 nM	–	1000 to 5000 nM	5000 to 10000 nM	50 to 100 nM	> 10000 nM
C[C@@H]1CN(c2ccnn3cc(-c4ccn(C)n4)cc23)C(=O)[C@]1(C#N)C1CC1 [Example 63, (3R,4S)-3-cyclopropyl-4-methyl-1-(6-(1-methyl-1H-pyrazol-3-yl)pyrrolo[1,2-b]pyridazin-4-yl)-2-oxopyrrolidine-3-carbonitrile]	> 100 nM	–	> 10000 nM	–	–	> 10000 nM	–	100 to 1000 nM	100 to 1000 nM	5 to 20 nM	100 to 1000 nM
C[C@@H]1CN(c2ccnn3cc(-c4c[nH]c5ncccc45)cc23)C(=O)[C@]1(C#N)C1CC1 [Example 72, (3R,4S)-1-(6-(1H-pyrrolo[2,3-b]pyridin-3-yl)pyrrolo[1,2-b]pyridazin-4-yl)-3-cyclopropyl-4-methyl-2-oxopyrrolidine-3-carbonitrile]	> 100 nM	–	5000 to 10000 nM	–	–	1000 to 5000 nM	–	100 to 1000 nM	100 to 1000 nM	5 to 20 nM	100 to 1000 nM
[2H]C([2H])([2H])n1cc(-c2cn3nccc3c(N3C[C@@H](C)[C@@](C#N)(C4CC4)C3=O)n2)cn1 [Example 201, (3R,4S)-3-cyclopropyl-4-methyl-1-(6-(1-(methyl-d3)-1H-pyrazol-4-yl)pyrazolo[1,5-a]pyrazin-4-yl)-2-oxopyrrolidine-3-carbonitrile]	20 to 50 nM	–	100 to 1000 nM	–	–	100 to 1000 nM	–	< 100 nM	< 100 nM	< 5 nM	< 100 nM
C[C@@H]1CN(c2ccnn3cc(-c4cnc5cc(C#N)ccn45)cc23)C(=O)[C@]1(C#N)C1CC1 [Example 103, 3-(4-((3R,4S)-3-cyano-3-cyclopropyl-4-methyl-2-oxopyrrolidin-1-yl)pyrrolo[1,2-b]pyridazin-6-yl)imidazo[1,2-a]pyridine-7-carbonitrile trifluoroacetate]	> 100 nM	–	> 10000 nM	–	–	> 10000 nM	–	> 10000 nM	> 10000 nM	5 to 20 nM	> 10000 nM
C[C@@H]1CN(c2ccnn3cc(-c4cnn([C@H]5C[C@H](C#N)C5)c4)cc23)C(=O)[C@]1(C#N)C1CC1 [Example 330, (3R,4S)-1-(6-(1-((1r,3R)-3-cyanocyclobutyl)-1H-pyrazol-4-yl)pyrrolo[1,2-b]pyridazin-4-yl)-3-cyclopropyl-4-methyl-2-oxopyrrolidine-3-carbonitrile]	20 to 50 nM	< 100 nM	1000 to 5000 nM	< 100 nM	< 5 nM	1000 to 5000 nM	< 100 nM	–	–	–	–
C[C@@H]1CN(c2nc(-c3cnn([C@H]4C[C@@](C)(O)C4)c3)cn3ncc(F)c23)C(=O)[C@]1(C#N)C1CC1 [Example 301, (3R,4S)-3-cyclopropyl-1-(3-fluoro-6-(1-((1s,3 S)-3-hydroxy-3-methylcyclobutyl)-1H-pyrazol-4-yl)pyrazolo[1,5-a]pyrazin-4-yl)-4-methyl-2-oxopyrrolidine-3-carbonitrile]	50 to 100 nM	< 100 nM	100 to 1000 nM	< 100 nM	< 5 nM	100 to 1000 nM	< 100 nM	–	–	–	–
